These results are taken from ChEMBL document CHEMBL1128664, “FPL 64176: The effect of the chain length separating the two aryl groups on calcium agonist activity” (Bioorg Med Chem Lett, 1995).

In test [1] the test system is GH3. The experiment in a line: Maximal stimulation of Ca 2+ uptake was determined. It is filed as functional, Rattus norvegicus.
Test [2] has as its system GH3. The experiment in a line: Effect on K+ stimulated [Ca2+] influx in GH3 cells at 10e-8 concentration. The class given is functional, Rattus norvegicus.
The test system of test [3] is GH3. As to the kind of experiment: Concentration required for enhancing calcium influx into GH 3 cells was determined. The class given is functional, cell-based. Conditions: Rattus norvegicus.
Test [4] relates to GH3. The experiment in a line: Effect on K+ stimulated [Ca2+] influx in GH3 cells at 10e-7 concentration. The class given is functional, Rattus norvegicus.
Test [5] relates to GH3. The experiment in a line: Effect on K+ stimulated [Ca2+] influx in GH3 cells at 10e-5 concentration. The class given is functional, Rattus norvegicus.
The test system of test [6] is GH3. The experiment in a line: Effect on K+ stimulated [Ca2+] influx in GH3 cells at 10e-6 concentration. The class given is functional, Rattus norvegicus.
Test [7] deals with GH3. The experiment in a line: Maximal stimulation of Ca 2+ uptake was determined; no significant effect. It is filed as functional, cell-based. The following applies: Rattus norvegicus.
In test [8] the test system is GH3. As to the kind of experiment: Concentration required for 84% enhancing calcium influx intoGH 3 cells was determined. It is filed as functional, cell-based. The following applies: Rattus norvegicus.

Usually EC50 stands for the concentration at which the effect is half-maximal.

Calls of active or inactive are those of the source. The calls are words filed in the database; no cut-off is given here.

On to `COC(=O)c1c(C)[nH]c(C)c1C(=O)c1ccccc1CCc1ccccc1`, for which the Stimulation in the test on GH3 [1] came to 420%. In addition, the Increase in the test on GH3 [2] stood at 0%; in the test on GH3 [4] it was 120%; in the test with GH3 [5] it was 350%; in the test with GH3 [6], 340%. For the same molecule, in the test on GH3 [3], the concentration for a half-maximal effect (EC50) was 207 nM.

For the molecule `COC(=O)c1c(C)[nH]c(C)c1C(=O)c1ccccc1CCCCc1ccccc1`, the Increase in the test on GH3 [2] is recorded as 0%; in the test on GH3 [4], 20%; with GH3 [5] it was 20%; with GH3 [6] it was 80%. The Stimulation result in the test with GH3 [7] is “inactive”. In addition, the concentration for a half-maximal effect (EC50) in the test on GH3 [8] amounted to 10000 nM.

In the test on GH3 [1], `COC(=O)c1c(C)[nH]c(C)c1C(=O)c1ccccc1Cc1ccccc1` yielded a Stimulation of 298%. Also, the Increase in the test on GH3 [2] was 20%; in the test on GH3 [4] it was 140%; with GH3 [5] it was 280%; in the test on GH3 [6] it was 240%. The EC50 in the test on GH3 [3] was determined as 140 nM.

As to `COC(=O)c1c(C)[nH]c(C)c1C(=O)c1ccccc1-c1ccccc1`, the Increase in the test on GH3 [2] is recorded as 0%; in the test on GH3 [4], -8%; in the test on GH3 [5], 0%; in the test with GH3 [6], -8%. In the test on GH3 [7], the Stimulation entry is “inactive”.

`COC(=O)c1c(C)[nH]c(C)c1C(=O)c1ccccc1CCCc1ccccc1` came in with a Stimulation with GH3 [1] of 265%. In addition, the Increase with GH3 [2] is -8%; in the test with GH3 [4], 0%; with GH3 [5], 220%; in the test with GH3 [6], 160%. The EC50 in the test on GH3 [3] was 614 nM.
